Target: T1, human GPR68 (Homo sapiens, UniProt Q15743)
T1 construct: encoding full-length human GPR68 (uniprot ID: Q15743); expressed in transfected cells; host or cells: HEK293T
Assay: GPR68 Biochemical Assay (Promega GloSensor cAMP assay, GPR68 antagonism)
Format: cell-based
Conditions: HEK293T cells transiently expressing hGPR68, antagonism of pH 5.5 stimulated cAMP, 15 min, read-out: hGPR68 IC50
Method in brief: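 HEK293T cells transiently co-transfected with full-length human GPR68 and GloSensor plasmids, preloaded 60 min with GloSensor substrate in pH 8.0 buffer. Compounds (9-point half-log series, top 50 μM final, 0.5% DMSO) added with pH 5.5 buffer (~EC80-90 stimulation); luminescence read after 15 min at room temperature. IC50 from sigmoidal fit of % inhibition.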

T1 sequence (Q15743 whole entry): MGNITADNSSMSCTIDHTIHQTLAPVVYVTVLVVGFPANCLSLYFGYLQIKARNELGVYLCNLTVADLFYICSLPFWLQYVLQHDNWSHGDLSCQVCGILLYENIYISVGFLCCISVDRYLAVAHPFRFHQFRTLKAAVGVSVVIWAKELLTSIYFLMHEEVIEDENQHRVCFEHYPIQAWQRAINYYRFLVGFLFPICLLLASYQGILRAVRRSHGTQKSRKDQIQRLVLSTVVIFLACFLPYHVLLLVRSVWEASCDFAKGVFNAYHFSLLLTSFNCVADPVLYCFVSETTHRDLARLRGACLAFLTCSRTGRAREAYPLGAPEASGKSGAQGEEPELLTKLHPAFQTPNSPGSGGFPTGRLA

IC50 | Compound
< 0.05 µM | COCc1nc2c(C(=O)N[C@@H]3CCS(=O)(=O)c4ccccc43)ccnn2c1C(N)=O [Compound 219, 2-(methoxymethyl)-N8-[(4R)-1,1-dioxo-3,4-dihydro-2H-thiochromen-4-yl]imidazo[1,2-b]pyridazine-3,8-dicarboxamide]
0.05 to 0.5 µM | COCc1nn2c(C(=O)N[C@H]3C[C@H](OC(F)(F)F)C3)ccnc2c1C(N)=O [Compound 224, 2-(methoxymethyl)-N7-[trans-3-(trifluoromethoxy)cyclobutyl]pyrazolo[1,5-a]pyrimidine-3,7-dicarboxamide]
< 0.05 µM | COCc1nn2c(C(=O)NC3Cc4cccnc4C3)ccnc2c1C(N)=O (single isomer, unassigned) [Compound 147, N7-(6,7-dihydro-5H-cyclopenta[b]pyridin-6-yl)-2-(methoxymethyl)pyrazolo[1,5-a]pyrimidine-3,7-dicarboxamide]
< 0.05 µM | NC(=O)c1c(OCC2CC2)nn2c(C(=O)NC3Cc4ccccc4C3)ccnc12 [Compound 142, 2-(cyclopropylmethoxy)-N7-indan-2-yl-pyrazolo[1,5-a]pyrimidine-3,7-dicarboxamide]
< 0.05 µM | COCc1nn2c(C(=O)NC3CC(F)(F)c4ccc(F)cc43)ccnc2c1C(N)=O (centres unmarked) [Compound 237, 2-(Methoxymethyl)-N7-(3,3,6-trifluoroindan-1-yl)pyrazolo[1,5-a]pyrimidine-3,7-dicarboxamide]
0.05 to 0.5 µM | COCc1nn2c(C(=O)NCc3cccc(F)c3)ccnc2c1C(N)=O [Compound 71, N7-[(3-fluorophenyl)methyl]-2-(methoxymethyl)pyrazolo[1,5-a]pyrimidine-3,7-dicarboxamide]
< 0.05 µM | COCc1nn2c(C(=O)N[C@@H]3Cc4ccccc4[C@@H]3C)ccnc2c1C(N)=O [Compound 201]
50 to 100 µM | CCC1(CC)CC(NC(=O)c2ccnc3c(C(N)=O)cnn23)C1 [Compound 10, N7-(3,3-diethylcyclobutyl)pyrazolo[1,5-a]pyrimidine-3,7-dicarboxamide]
< 0.05 µM | CCCc1nn2c(C(=O)N[C@H]3C[C@@H](OC(F)(F)F)C3)ccnc2c1C(N)=O [Compound 137, 2-propyl-N7-[cis-3-(trifluoromethoxy)cyclobutyl]pyrazolo[1,5-a]pyrimidine-3,7-dicarboxamide]
< 0.05 µM | CNc1nn2c(C(=O)NC3CC(F)(F)C3)ccnc2c1C(N)=O [Compound 34, N7-(3,3-difluorocyclobutyl)-2-(methylamino)pyrazolo[1,5-a]pyrimidine-3,7-dicarboxamide]
5 to 50 µM | CCC(CNC(=O)c1ccnc2c(C(N)=O)cnn12)Oc1cccc(C)c1 (centres unmarked) [Compound 96, N7-[2-(3-methylphenoxy)butyl]pyrazolo[1,5-a]pyrimidine-3,7-dicarboxamide]
< 0.05 µM | COCc1nn2c(C(=O)NC3Cc4cccc(F)c4C3)ccnc2c1C(N)=O (centres unmarked) [Compound 91, N7-(4-fluoroindan-2-yl)-2-(methoxymethyl)pyrazolo[1,5-a]pyrimidine-3,7-dicarboxamide]
< 0.05 µM | COCc1nn2c(C(=O)Nc3ccc(F)cc3F)ccnc2c1C(N)=O [Compound 68, N7-(2,4-difluorophenyl)-2-(methoxymethyl)pyrazolo[1,5-a]pyrimidine-3,7-dicarboxamide]
< 0.05 µM | COCc1nn2c(C(=O)NC3CC(F)(F)C3)ccnc2c1C(N)=O [Compound 58, N7-(3,3-difluorocyclobutyl)-2-(methoxymethyl)pyrazolo[1,5-a]pyrimidine-3,7-dicarboxamide]
< 0.05 µM | NC(=O)c1c(C2CC2)nn2c(C(=O)N[C@H]3C[C@@H](OC(F)(F)F)C3)ccnc12 [Compound 111, 2-cyclopropyl-N7-[cis-3-(trifluoromethoxy)cyclobutyl]pyrazolo[1,5-a]pyrimidine-3,7-dicarboxamide]
50 to 100 µM | COc1ccc2c(c1)CC(NC(=O)c1ccnc3c(C(N)=O)cnn13)C2 (centres unmarked) [Compound 3, N7-(5-methoxyindan-2-yl)pyrazolo[1,5-a]pyrimidine-3,7-dicarboxamide]
< 0.05 µM | COCc1nn2c(C(=O)NC3CCC(F)(F)c4ccccc43)cc(C)nc2c1C(N)=O (centres unmarked) [Compound 226, N7-(4,4-difluorotetralin-1-yl)-2-(methoxymethyl)-5-methyl-pyrazolo[1,5-a]pyrimidine-3,7-dicarboxamide]

IC50 | Compound
50 to 100 µM | NC(=O)c1cnn2c(C(=O)NC3CC4(CCOCC4)C3)ccnc12 [Compound 12, N7-(7-oxaspiro[3.5]nonan-2-yl)pyrazolo[1,5-a]pyrimidine-3,7-dicarboxamide]
0.05 to 0.5 µM | NC(=O)c1cnn2c(C(=O)NC3Cc4cccc(Cl)c4C3)ccnc12 (centres unmarked) [Compound 4, N7-(4-chloroindan-2-yl)pyrazolo[1,5-a]pyrimidine-3,7-dicarboxamide]
< 0.05 µM | COCc1nn2c(C(=O)NC3CC(F)(F)c4ccccc43)ccnc2c1C(N)=O (single isomer, unassigned) [Compound 173, N7-(3,3-difluoroindan-1-yl)-2-(methoxymethyl)pyrazolo[1,5-a]pyrimidine-3,7-dicarboxamide]
0.5 to 5 µM | NC(=O)c1c(-c2ccccc2F)nn2c(C(=O)NC3Cc4ccccc4C3)cccc12 [Compound 36, 2-(2-fluorophenyl)-N7-indan-2-yl-pyrazolo[1,5-a]pyridine-3,7-dicarboxamide]
0.05 to 0.5 µM | COCc1nn2c(C(=O)N[C@H]3C[C@H](C)C3)ccnc2c1C(N)=O [Compound 86, 2-(methoxymethyl)-N7-(trans-3-methylcyclobutyl)pyrazolo[1,5-a]pyrimidine-3,7-dicarboxamide]
< 0.05 µM | COCc1nn2c(C(=O)N[C@H]3CCS(=O)(=O)c4ccccc43)ccnc2c1C(N)=O (single isomer, unassigned) [Compound 234]
< 0.05 µM | COCc1nn2c(C(=O)N[C@@H]3CCS(=O)(=O)c4ccccc43)ccnc2c1C(N)=O [Compound 233, N7-[(4R)-1,1-dioxo-3,4-dihydro-2H-thiochromen-4-yl]-2-(methoxymethyl)pyrazolo[1,5-a]pyrimidine-3,7-dicarboxamidfe]
0.05 to 0.5 µM | COCc1nc2c(C(=O)N[C@H]3C[C@@H](OC(F)(F)F)C3)ccnn2c1C(N)=O [Compound 55, 2-(methoxymethyl)-N8-[cis-3-(trifluoromethoxy)cyclobutyl]imidazo[1,2-b]pyridazine-3,8-dicarboxamide]
< 0.05 µM | COCc1nn2c(C(=O)NC3CCC(F)(F)CC3)ccnc2c1C(N)=O [Compound 80, N7-(4,4-difluorocyclohexyl)-2-(methoxymethyl)pyrazolo[1,5-a]pyrimidine-3,7-dicarboxamide]
< 0.05 µM | NC(=O)c1c(C2CC2)nn2c(C(=O)NC3Cc4ccccc43)ccnc12 (centres unmarked) [Compound 138, N7-(7-bicyclo[4.2.0]octa-1,3,5-trienyl)-2-cyclopropyl-pyrazolo[1,5-a]pyrimidine-3,7-dicarboxamide]
< 0.05 µM | CSCc1nn2c(C(=O)N[C@H]3C[C@@H](OC(F)(F)F)C3)ccnc2c1C(N)=O [Compound 217, 2-(methylsulfanylmethyl)-N7-[cis-3-(trifluoromethoxy)cyclobutyl]pyrazolo[1,5-a]pyrimidine-3,7-dicarboxamide]
< 0.05 µM | COCc1nc2c(C(=O)NC3Cc4cscc4C3)ccnn2c1C(N)=O [Compound 105, N8-(5,6-dihydro-4H-cyclopenta[c]thiophen-5-yl)-2-(methoxymethyl)imidazo[1,2-b]pyridazine-3,8-dicarboxamide]
< 0.05 µM | CC(C)c1nn2c(C(=O)NC3CCS(=O)(=O)c4ccccc43)ccnc2c1C(N)=O (centres unmarked) [Compound 230, N7-(1,1-dioxo-3,4-dihydro-2H-thiochromen-4-yl)-2-isopropyl-pyrazolo[1,5-a]pyrimidine-3,7-dicarboxamide]
0.05 to 0.5 µM | NC(=O)c1c(CO)nn2c(C(=O)NC3Cc4ccccc4C3)ccnc12 [Compound 204, 2-(hydroxymethyl)-N7-indan-2-yl-pyrazolo[1,5-a]pyrimidine-3,7-dicarboxamide]
5 to 50 µM | C[C@]1(O)C[C@@H](NC(=O)c2ccnc3c(C(N)=O)cnn23)C1 [Compound 8, N7-(cis-3-hydroxy-3-methyl-cyclobutyl)pyrazolo[1,5-a]pyrimidine-3,7-dicarboxamide]
5 to 50 µM | CC(COc1ccc(C(C)(C)C)cc1)NC(=O)c1ccnc2c(C(N)=O)cnn12 (centres unmarked) [Compound 99, N7-[1-(4-tert-butylphenoxy)propan-2-yl]pyrazolo[1,5-a]pyrimidine-3,7-dicarboxamide]

Same assay, conditions: hGPR68 IC50, HEK293T cells transiently expressing hGPR68, antagonism of pH 5.5 stimulated cAMP, 15 min

IC50 | Compound
0.05 to 0.5 µM | NC(=O)c1c(C2CC2)nn2c(C(=O)NC3CCC(F)(F)CC3)cnnc12 [Compound 156, 7-cyclopropyl-N4-(4,4-difluorocyclohexyl)pyrazolo[5,1-c][1,2,4]triazine-4,8-dicarboxamide]
< 0.05 µM | NC(=O)c1c(CO)nn2c(C(=O)N[C@H]3C[C@@H](OC(F)(F)F)C3)ccnc12 [Compound 141, 2-(hydroxymethyl)-N7-[cis-3-(trifluoromethoxy)cyclobutyl]pyrazolo[1,5-a]pyrimidine-3,7-dicarboxamide]
5 to 50 µM | Cc1cnc2c(C(N)=O)c(C)nn2c1C(=O)NC1CC(F)(F)C1 [Compound 38, N7-(3,3-difluorocyclobutyl)-2,6-dimethyl-pyrazolo[1,5-a]pyrimidine-3,7-dicarboxamide]
0.05 to 0.5 µM | NC(=O)c1c(C2CCCO2)nn2c(C(=O)NC3CC(F)(F)C3)ccnc12 (centres unmarked) [Compound 43, N7-(3,3-difluorocyclobutyl)-2-tetrahydrofuran-2-yl-pyrazolo[1,5-a]pyrimidine-3,7-dicarboxamide]
0.05 to 0.5 µM | CC(C)(O)c1nn2c(C(=O)NC3CC(F)(F)C3)ccnc2c1C(N)=O [Compound 213, N7-(3,3-difluorocyclobutyl)-2-(1-hydroxy-1-methyl-ethyl)pyrazolo[1,5-a]pyrimidine-3,7-dicarboxamide]

— patent US20260308159A1, “BICYCLIC HETEROARYLAMIDES HAVING GPR68 MODULATING ACTIVITY” (RECURSION PHARMACEUTICALS, INC., priority 2023, published 2026)
